The record followed here is US10662210B2, “Compositions and methods comprising osmium for the treatment of cancers” (Massachusetts Institute of Technology, priority 2014, dated 2020).

What all share (type): cell-based, human
Assay [1] has as its system genomic DNA from A2780 cells. In words: Intracellular DNA osmium content. To be noted: 10 μM, 12 h. The method, then:
(§1) To gain further insight into the modes of action of 2 and 4, immunoblotting analyses were conducted to monitor changes in expression of biomarkers related to the DNA damage pathway (FIG. 8). […] This difference could be related to steric effects imposed by the phenyl groups in 4.
To measure the amount osmium on genomic DNA, ca. 1 million A2780 cells were treated with 10 μM of the complexes at 37° C. for 12 h. Then the media were removed, the cells were washed with PBS solution (1 mL×3), harvested, and centrifuged. The cellular pellet was suspended in DNAzol (1 mL, genomic DNA isolation reagent, MRC). The DNA was precipitated with ethanol (0.5 mL), washed with 75% ethanol (0.75 mL×3), and re-dissolved in 200 μL of 8 mM NaOH. The DNA concentration was determined by UV-visible spectroscopy, and osmium was quantified by GFAAS. The reported values are the average of at least three independent experiments with the error reported as the standard deviation.

A further assay relates to A549 (lung). In words: Cytotoxicity MTT assay. To be noted: 72 h. The method, then:
(§2) The anti-proliferative properties of 1-4 against a panel of human cancer cell lines were assessed by the MTT [3-(4,5-dimethylthiazol-2-yl)-2,5-diphenyltetrazolium bromide] assay. Cisplatin was included as a control. The IC50 values, concentrations required to induce 50% viability, were derived from dose-response curves and are summarized in Table 1.
(§3) A549 lung adenocarcinoma, HeLa cervical cancer, and MRC5 normal human fetal lung fibroblast cell lines were maintained in Dulbecco's Modified Eagle's Medium (DMEM-low glucose) supplemented with 10% fetal bovine serum and 1% penicillin/streptomycin. The cisplatin-sensitive A2780 ovarian cancer and the cisplatin-resistant A2780/CP70 ovarian cancer cell lines were cultured in RPMI (glutamine free) media supplemented with 10% fetal bovine serum and 1% penicillin/streptomycin. All cells were grown at 310 K in a humidified atmosphere containing 5% CO2.
(§4) The colorimetric MTT assay was used to determine the toxicity of the osmium complexes and cisplatin. Cells (2×10^3) were seeded in each well of a 96-well plate. After incubating the cells overnight, various concentrations of test compound (0.3-100 μM) were added and incubated for 72 h (total volume 200 μL). The test compounds were prepared as 10 mM solutions in DMSO and diluted using media. The final concentration of DMSO in each well was 0.5% and this amount was present in the untreated control as well. Cisplatin was prepared as a 5 mM solution in PBS and diluted further using media. After 72 h, the medium was removed, 200 μL of a 0.4 mg/mL solution of MTT in DMEM or RPMI was added, and the plate was incubated for an additional 1-2 h. The DMEM/MTT or RPMI/MTT mixture was aspirated and 200 μL of DMSO was added to dissolve the resulting purple formazan crystals. The absorbance of the solution wells was read at 550 nm. Absorbance values were normalized to DMSO-containing control wells and plotted as concentration of test compound versus % cell viability. IC50 values were interpolated from the resulting dose dependent curves. The reported IC50 values are the average from at least three independent experiments, each of which consisted of six replicates per concentration level.

Another assay concerns A2780/CP70 (ovarian). In words: Cytotoxicity MTT assay. The following applies: 72 h, cisplatin-resistant. The method, then:
as §2, §3, §4
(Formazan colour is commonly taken as a measure of viable cells.)

In a further assay the test system is A2780 (ovarian). The assay can be described thus: Cytotoxicity MTT assay. To be noted: for IC50: MTT, 72 h. The method, then:
as §2, §3, §4

The test system of the next assay is MRC-5 (lung normal). In words: Cytotoxicity MTT assay. The following applies: 72 h. The protocol:
as §2, §3, §4

In a further assay the test system is HeLa (cervical). In words: Cytotoxicity MTT assay. The following applies: 72 h. The method, then:
as §2, §3, §4

For assay [2], the system named is phosphorylated H2AX (γH2AX), CHK2, CHK1, p53 (Ser15) in A2780 cells. The assay can be described thus: Immunoblotting analysis, DNA damage pathway. The following applies: 72 hours. The method, then: as §1
A2780 cells (5×10^5 cells) were incubated with the osmium complexes (concentrations, μM) for 72 h at 37° C. Cells were washed with PBS, scraped into SDS-PAGE loading buffer (64 mM Tris-HCl (pH6.8)/9.6% glycerol/2% SDS/5% β-mercaptoethanol/0.01% Bromophenol Blue), and incubated at 95° C. for 10 min. Whole cell lysates were resolved by 4-20% sodium dodecylsulphate polyacylamide gel electrophoresis (SDS-PAGE; 200 V for 25 min) followed by electro transfer to polyvinylidene difluoride membrane, PVDF (350 mA for 1 h). Membranes were blocked in 5% (w/v) non-fat milk in PBST (PBS/0.1% Tween 20) and incubated with the appropriate primary antibodies (Cell Signalling Technology and Santa Cruz). After incubation with horseradish peroxidase-conjugated secondary antibodies (Cell Signalling Technology), immune complexes were detected with the ECL detection reagent (BioRad) and analyzed using an Alpha Innotech ChemiImager™ 5500 fitted with a chemiluminescence filter.
On the technique in general: A western blot detects proteins with antibodies after separation by electrophoresis.

In assay [3] the test system is cleaved caspase 3, 7, 9 and PARP in A2780 cells. The assay can be described thus: Immunoblotting analysis, apoptosis pathway. The following applies: 72 h. The protocol: To have a more complete understanding of the cellular response induced by 2 or 4, their mode of cell killing was evaluated. Many clinically approved cancer drugs exert their cytotoxic effects through apoptosis, and so the features related to this pathway were monitored. Apoptotic cells underwent morphological changes that lead to cell membrane disorientation. […] Cells can undergo other forms of cell death such as necrosis and autophagy. To probe these pathways, cytotoxicity assays were carried out in the presence of […], chloroquine, and IM-54, respectively. Because both chloroquine and IM-54 had little effect on the potency of either of the osmium complexes, necrosis and autophagy were ruled out as possible death pathways. […] On the other hand, 4 initiated ER stress, culminating in p53 independent, caspase directed apoptosis (FIG. 4).
A2780 cells (5×10^5 cells) were incubated with the osmium complexes (concentrations, μM) for 72 h at 37° C. […] After incubation with horseradish peroxidase-conjugated secondary antibodies (Cell Signalling Technology), immune complexes were detected with the ECL detection reagent (BioRad) and analyzed using an Alpha Innotech ChemiImager™ 5500 fitted with a chemiluminescence filter.

Turning to `[N]#[Os]1([Cl])([Cl])([Cl])[N]2C=CC(c3ccccc3)=c3ccc4c(c32)[N]1C=CC=4c1ccccc1` [Complex 4, OsN(4,7-diphenyl-1,10-phenanthroline)Cl3], in assay [1], the “Os/DNA ratio on genomic DNA” value is “about 14 pmol/μg”. In addition, the half-inhibitory concentration (IC50) (usually the concentration that gives 50% inhibition) stood at 1.97 ± 0.02 µM with A549 (lung); 3.4 ± 0.28 µM with A2780/CP70 (ovarian); 3.36 ± 0.09 µM in the assay on A2780 (ovarian); 8.45 ± 1.21 µM with MRC-5 (lung normal); 2.86 ± 0.51 µM in the assay on HeLa (cervical). Moreover, in assay [2], the “expression of DNA damage pathway biomarkers” value was “little signs of DNA damage”. Further, in assay [3], the “expression of apoptosis positive proteins” value is “expressed apoptosis positive proteins, cleaved caspase 3, 7, 9, and poly ADP ribose polymerase (PARP)”.
Take `[N]#[Os]1([Cl])([Cl])([Cl])[N]2C=CC=c3ccc4c(c32)[N]1C=CC=4` [Complex 2, OsN(1,10-phenanthroline)Cl3]: the “Os/DNA ratio on genomic DNA” value in assay [1] was “about 21 pmol/μg”. For the same compound, the concentration for half-maximal inhibition (IC50) with A549 (lung) came to 7.86 ± 1.41 µM; in the assay on A2780/CP70 (ovarian) it was 2.96 ± 0.23 µM; with A2780 (ovarian), 1.99 ± 0.23 µM; in the assay with MRC-5 (lung normal), 16.6 ± 3.61 µM; with HeLa (cervical) it was 6.95 ± 0.53 µM. The “higher potency for A2780 than for normal lung fibroblast MRC5” value in the assay on A2780 (ovarian) (A2780 vs MRC5) was 8 fold. In addition, the “expression of DNA damage pathway biomarkers” value in assay [2] is “marked increase in expression of the phosphorylated forms of H2AX (γH2AX), CHK2, CHK1, and p53 (Ser15)”. Besides, the “expression of apoptosis positive proteins” value in assay [3] is “expressed apoptosis positive proteins, cleaved caspase 3, 7, 9, and poly ADP ribose polymerase (PARP)”.
